Test results reported in ChEMBL document CHEMBL4387735, “Chemically synthesized LYRM03 could inhibit the metastasis of human breast cancer MDA-MB-231 cells in vitro and in vivo” (Bioorg Med Chem Lett, 2019).
The source made the active and inactive calls. The rule behind the calls is not given here.

Experiments:
[1] = test system: MDA-MB-231; assay: Cytotoxicity against human MDA-MB-231 cells assessed as reduction in cell viability at 100 ug/ml incubated for 48 hrs by MTT assay; format: cell-based; details: mda-mb-231, 48 h
[2] = test system: MDA-MB-231; assay: Antimetastatic activity against human MDA-MB-231 cells xenografted in SCID mouse assessed as reduction in metastasis foci formation in lungs at 100 mg/kg, ip administered 3 times per week by hematoxylin-eosin staining based assay; format: functional, organism-based
[3] = molecular target: Aminopeptidase N (Homo sapiens) (UniProt P15144); details: MDA-MB-231, 50 ug/ml
Aminopeptidase N (Homo sapiens), sequence (P15144 whole entry): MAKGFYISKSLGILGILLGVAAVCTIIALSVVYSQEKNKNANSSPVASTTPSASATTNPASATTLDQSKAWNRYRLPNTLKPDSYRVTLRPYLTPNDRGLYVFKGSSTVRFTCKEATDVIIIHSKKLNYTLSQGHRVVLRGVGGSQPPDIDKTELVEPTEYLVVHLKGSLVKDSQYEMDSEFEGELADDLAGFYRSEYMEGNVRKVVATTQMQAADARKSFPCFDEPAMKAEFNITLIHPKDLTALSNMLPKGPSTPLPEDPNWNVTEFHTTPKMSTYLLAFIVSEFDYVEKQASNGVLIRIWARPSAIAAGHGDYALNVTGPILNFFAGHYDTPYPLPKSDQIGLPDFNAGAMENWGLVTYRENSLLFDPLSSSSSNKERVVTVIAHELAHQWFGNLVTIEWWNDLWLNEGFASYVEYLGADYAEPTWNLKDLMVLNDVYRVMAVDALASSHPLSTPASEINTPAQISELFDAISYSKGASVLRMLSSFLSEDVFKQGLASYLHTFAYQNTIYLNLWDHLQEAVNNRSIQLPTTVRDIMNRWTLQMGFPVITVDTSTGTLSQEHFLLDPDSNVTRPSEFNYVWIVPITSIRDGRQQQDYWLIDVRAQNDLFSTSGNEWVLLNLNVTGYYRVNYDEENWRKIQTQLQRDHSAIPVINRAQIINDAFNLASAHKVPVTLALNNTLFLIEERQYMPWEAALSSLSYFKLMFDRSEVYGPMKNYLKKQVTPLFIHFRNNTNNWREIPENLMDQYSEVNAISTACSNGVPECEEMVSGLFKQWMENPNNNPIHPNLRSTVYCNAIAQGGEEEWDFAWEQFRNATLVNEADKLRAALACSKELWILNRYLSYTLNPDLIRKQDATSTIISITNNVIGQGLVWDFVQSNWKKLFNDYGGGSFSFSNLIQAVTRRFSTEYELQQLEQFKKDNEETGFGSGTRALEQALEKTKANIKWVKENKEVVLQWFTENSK
Description: Inhibition of human APN in MDA-MB-231 cells at 50 ug/ml using L-leucine-p-nitroanilide as a substrate incubated for 1 hr by spectrophotometric method relative to control

[4] = test system: MDA-MB-231; assay: Induction of apoptosis in human MDA-MB-231 cells assessed as late apoptotic cells at 50 ug/ml by Annexin V/PI staining based flow cytometric method (reference value: 0.92%); format: functional
[5] = test system: MDA-MB-231; assay: Inhibition of colony formation in human MDA-MB-231 cells at 50 to 100 ug/ml incubated for 10 days; format: functional, cell-based
[6] = test system: MDA-MB-231; assay: Antimetastatic activity in human MDA-MB-231 cells assessed as reduction in cell migration at 50 to 100 ug/ml incubated for 24 hrs by transwell assay; format: functional, cell-based
[7] = test system: MDA-MB-231; assay: Effect on APN protein expression in human MDA-MB-231 cells at 10 to 100 ug/ml by Western blot analysis; format: functional, cell-based
[8] = test system: MDA-MB-231; assay: Induction of apoptosis in human MDA-MB-231 cells assessed as early apoptotic cells at 100 ug/ml by Annexin V/PI staining based flow cytometric method (reference value: 0.54%); format: functional
[9] = test system: MDA-MB-231; assay: Induction of apoptosis in human MDA-MB-231 cells assessed as necrotic cells at 100 ug/ml by Annexin V/PI staining based flow cytometric method (reference value: 7.79%); format: functional
[10] = test system: MDA-MB-231; assay: Induction of apoptosis in human MDA-MB-231 cells assessed as induction of PARP cleavage at 10 to 100 ug/ml 6 to 48 hrs by Western blot analysis; format: functional, cell-based
[11] = molecular target: Aminopeptidase N (Homo sapiens) (UniProt P15144); assay: Inhibition of human APN in MDA-MB-231 cells at >50 ug/ml using L-leucine-p-nitroanilide as a substrate incubated for 1 hr by spectrophotometric method relative to control; format: cell-based
[12] = test system: MDA-MB-231; assay: Induction of apoptosis in human MDA-MB-231 cells assessed as early apoptotic cells at 50 ug/ml by Annexin V/PI staining based flow cytometric method (reference value: 0.54%); format: functional
[13] = test system: MDA-MB-231; assay: Cytotoxicity against human MDA-MB-231 cells assessed as reduction in cell viability at 100 ug/ml incubated for 24 to 48 hrs by MTT assay relative to control; format: cell-based
[14] = test system: MDA-MB-231; assay: Effect on MMP9 protein expression in human MDA-MB-231 cells; format: functional, cell-based
[15] = test system: MDA-MB-231; assay: Effect on MMP2 protein expression in human MDA-MB-231 cells; format: functional, cell-based
[16] = test system: MDA-MB-231; assay: Inhibition of cell migration in human MDA-MB-231 cells assessed as scratch healing at 10 to 100 ug/ml incubated for 24 hrs by wound healing assay; format: functional; parameters: scale not given: the % may be the effect or the level left
[17] = test system: MDA-MB-231; assay: Induction of apoptosis in human MDA-MB-231 cells assessed as live cells at 100 ug/ml by Annexin V/PI staining based flow cytometric method (reference value: 90.75%); format: functional
[18] = test system: MDA-MB-231; assay: Induction of apoptosis in human MDA-MB-231 cells assessed as late apoptotic cells at 100 ug/ml by Annexin V/PI staining based flow cytometric method (reference value: 0.92%); format: functional
[19] = test system: MDA-MB-231; assay: Antimigratory activity in human MDA-MB-231 cells assessed as induction of slow cell migration at 100 ug/ml incubated up to 24 hrs by wound healing assay; format: functional, cell-based
[20] = test system: MDA-MB-231; assay: Effect on MMP7 protein expression in human MDA-MB-231 cells; format: functional, cell-based
[21] = test system: MDA-MB-231; assay: Induction of apoptosis in human MDA-MB-231 cells assessed as necrotic cells at 50 ug/ml by Annexin V/PI staining based flow cytometric method (reference value: 7.79%); format: functional
[22] = test system: MDA-MB-231; assay: Induction of apoptosis in human MDA-MB-231 cells assessed as live cells at 50 ug/ml by Annexin V/PI staining based flow cytometric method (reference value: 90.75%); format: functional
[23] = test system: MDA-MB-231; assay: Inhibition of cell migration in human MDA-MB-231 cells incubated upto to 24 hrs by wound healing assay; format: functional, cell-based

With `CC(C)C[C@H](NC(=O)[C@@H](O)[C@H](N)Cc1ccccc1)C(=O)O` [UBENIMEX] the Activity [1] was “Toxic”, the Activity [2] was “Active” and the inhibition [3] was “Active”.
In the case of `CC[C@H](C)[C@H](NC(=O)[C@@H](NC(=O)[C@@H](O)[C@H](N)Cc1ccccc1)C(C)C)C(=O)O`, the Activity [4] is reported as 0.77%, the inhibition [5] is reported as “Active” and the Activity [6] is reported as “Active”. The Activity [7] was “inactive”, the Activity [8] was 0.71% and the Activity [9] was 9.05%. For the same molecule, the Activity [10] was “inactive”, the inhibition [11] was greater than 50% and the Activity [12] was 0.73%. For the same molecule, the Activity [13] was “<= 20%”, the Activity [14] was “inactive” and the Activity [15] was “inactive”. It also gave an Activity [16] of 50%, an Activity [17] of 89.5% and an Activity [18] of 0.75%. For the same molecule, the Activity [19] was “Active”, the Activity [20] was “inactive” and the Activity [2] was “Active”. For the same molecule, the Activity [21] was 8.51%, the Activity [22] was 89.98% and the inhibition [23] was “Dose-dependent effect”.
